In PubChem BioAssay AID2060497 (Molecular Pharmacology Branch, DTP, NCI, 2025):
Blank lines part the entries; values can stand above or below the compound they belong to.

System: 317291-083-R-J1-PDC complex spheroids, viability
Assay: Anticancer human tumor 317291-083-R-J1-PDC patient-derived soft tissue sarcoma cell line growth inhibition [GQUAD]
Conditions: for IC50: curve of first compound; for viability, T/C: stronger effect = lower value
Source text: DNA G-quadruplex Stabilizer Agents in Combinations in Complex Spheroids
A high-throughput screen of multi-cell type tumor spheroids was designed to identify active combinations of DNA G-quadruplex stabilizer agents and targeted small molecules. Complex spheroids include a stromal component modeled by human endothelial cells (HUVEC) and fibroblasts modeled by human mesenchymal stem cells (MSCs). The concentration ranges selected for each drug and investigational agent were based upon clinically achievable concentrations if the clinical Cmax of the agent was known.
Compounds. The drugs and investigational agents: pidnarulex (CX-5461; NSC782164), APTO-253 (NSC789042), BRACO-19 (NSC847499), peposertib (NSC802822), ceralasertib (NSC780249), elimusertib (NSC800525), camonsertib (NSC841442), AZD-1390 (NSC803789), olaparib (NSC753686), talazoparib (NSC767125), ART-558 (NSC835418), sotorasib (NSC818433), MRTX-1133 (NSC836407), SN-38 (NSC673596), topotecan (NSC609699), etoposide (NSC141540), doxorubicin (NSC123127), gemcitabine (NSC613327), 5-fluorouracil (NSC19893), paclitaxel (NSC125973), vemurafenib (NSC761431), panobinostat (NSC761190), R-306465 (JNJ-16241199; NSC773264), adavosertib (NSC754352), TP-3654 (NSC805149), carboplatin (NSC241240), KSQ-4279 (NSC840948), and staurosporine (NSC755774) were obtained from the National Cancer Institute (NCI) Developmental Therapeutics Program Chemical Repository (34). The FDA-approved anticancer drug set is available from the NCI Developmental Therapeutics Program. […] The stock solutions were prepared in dimethyl sulfoxide (DMSO, Sigma-Aldrich, St. Louis, MO, cat. D2650) at 800-fold the tested concentration and stored at -70 degrees C prior to their use. All drugs and investigational agents were tested over a range starting from a high concentration at or near the clinical Cmax and decreasing in half-log increments. If the clinical Cmax for an agent had not been determined, the highest concentration tested was 10 microM.
2.3 Cell Culture. All cells were maintained in an incubator at 37 degrees C and 5% CO2 with 95% humidity. The PDC lines were cultured according to standard operating procedures established by the NCI PDMR. All PDCs were thawed and cultured in Matrigel-coated flasks prepared with a working solution of 1X Ham's F-12 nutrient mix, without supplementation (Invitrogen, cat. 11765054), 100 U/mL penicillin-streptomycin (Invitrogen, cat. 15140122), and 2.5% Matrigel (Corning Inc., cat. 354248) for the first three passages. The 857933-349-R-J2-PDC line was cultured in 6C/Colon 1B media, which includes advanced DMEM/F-12 (Thermo Fisher Scientific, cat. 12634028), 10 mM HEPES (Thermo Fisher Scientific, cat. 15630080), 1X GlutaMAX supplement (Thermo Fisher Scientific, cat. 35050061), 0.1 mg/mL primocin (InvivoGen, cat. ant-pm-2), 10% defined fetal bovine serum, heat inactivated (HyClone Laboratories Inc., cat. SH30070.03HI), 50% L-WRN conditioned media (ATCC, cat. CRL-3276), 1.25 mM N-Acetyl-L-cysteine (Sigma-Aldrich, cat. A9165), 10 mM nicotinamide (Sigma-Aldrich, cat. N0636), 1X B-27 supplement (Thermo Fisher Scientific, cat. 17504044), 1X N-2 supplement (Thermo Fisher Scientific, cat. 17502048), 10 microM Y-27632 dihydrochloride (Tocris Bioscience, cat. 1254), and 50 ng/mL human EGF recombinant protein (Thermo Fisher Scientific, cat. PHG0311). The 485176-168-R4-J1-PDC line was cultured in Panc media, which includes all 6C/Colon 1B media components plus 100 ng/mL human FGF-10 (Thermo Fisher Scientific, cat. 100-26), 500 nM SB-431542 (Selleckchem, cat. S1067), and gastrin (Tocris, cat. 3006).
[…]

[1] = second compound 0.0316 µM, first compound 0.0316 µM
[2] = second compound 0.0316 µM, first compound 0.1 µM
[3] = second compound 0.0316 µM, first compound 0.316 µM
[4] = second compound 0.0316 µM, first compound 1 µM
[5] = second compound 0.0316 µM, first compound 3.16 µM
[6] = second compound 0.0316 µM, first compound 10 µM
[7] = second compound 0.1 µM, first compound 0.0316 µM
[8] = second compound 0.1 µM, first compound 0.1 µM
[9] = second compound 0.1 µM, first compound 0.316 µM
[10] = second compound 0.1 µM, first compound 1 µM
[11] = second compound 0.1 µM, first compound 3.16 µM
[12] = second compound 0.1 µM, first compound 10 µM
[13] = second compound 0.316 µM, first compound 0.0316 µM
[14] = second compound 0.316 µM, first compound 0.1 µM
[15] = second compound 0.316 µM, first compound 0.316 µM
[16] = second compound 0.316 µM, first compound 1 µM
[17] = second compound 0.316 µM, first compound 3.16 µM
[18] = second compound 0.316 µM, first compound 10 µM
[19] = second compound 1 µM, first compound 0.0316 µM
[20] = second compound 1 µM, first compound 0.1 µM
[21] = second compound 1 µM, first compound 0.316 µM
[22] = second compound 1 µM, first compound 1 µM
[23] = second compound 1 µM, first compound 3.16 µM
[24] = second compound 1 µM, first compound 10 µM
[25] = second compound 3.16 µM, first compound 0.0316 µM
[26] = second compound 3.16 µM, first compound 0.1 µM
[27] = second compound 3.16 µM, first compound 0.316 µM
[28] = second compound 3.16 µM, first compound 1 µM
[29] = second compound 3.16 µM, first compound 3.16 µM
[30] = second compound 3.16 µM, first compound 10 µM
[31] = second compound 10 µM, first compound 0.0316 µM
[32] = second compound 10 µM, first compound 0.1 µM
[33] = second compound 10 µM, first compound 0.316 µM
[34] = second compound 10 µM, first compound 1 µM
[35] = second compound 10 µM, first compound 3.16 µM
[36] = second compound 10 µM, first compound 10 µM
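Further: spheroids exposed to compounds for one week before readout.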
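Wherever viability, T/C is given: percent viability relative to DMSO vehicle wells taken as 100%.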

Compound: COc1ncnc(C2CC2)c1-c1ncc2cnn(Cc3ccc(-c4nc(C(F)(F)F)cn4C(C)C)cc3)c2n1 + Cc1[nH]c2ccc(F)cc2c1-c1nc2c3cccnc3c3ncccc3c2[nH]1
IC50 (second compound 0.0316 µM): > 10000 nM | IC50 (second compound 0.1 µM): > 10000 nM | IC50 (second compound 0.316 µM): 200 nM | IC50 (second compound 1 µM): < 31.6 nM | IC50 (second compound 3.16 µM): < 31.6 nM | IC50 (second compound 10 µM): < 31.6 nM | viability, T/C [1]: 110% | viability, T/C [2]: 77.8% | viability, T/C [3]: 84.5% | viability, T/C [4]: 72.2% | viability, T/C [5]: 64.3% | viability, T/C [6]: 92.3% | viability, T/C [7]: 85.7% | viability, T/C [8]: 96.5% | viability, T/C [9]: 68.3% | viability, T/C [10]: 63.7% | viability, T/C [11]: 93.4% | viability, T/C [12]: 65% | viability, T/C [13]: 63.3% | viability, T/C [14]: 52.8% | viability, T/C [15]: 50.4% | viability, T/C [16]: 37.2% | viability, T/C [17]: 46% | viability, T/C [18]: 35.2% | viability, T/C [19]: 41.4% | viability, T/C [20]: 37.9% | viability, T/C [21]: 35.3% | viability, T/C [22]: 41.2% | viability, T/C [23]: 40.5% | viability, T/C [24]: 39.8% | viability, T/C [25]: 35.1% | viability, T/C [26]: 27.6% | viability, T/C [27]: 27.1% | viability, T/C [28]: 23.3% | viability, T/C [29]: 23.2% | viability, T/C [30]: 30.5% | viability, T/C [31]: 35.8% | viability, T/C [32]: 35.8% | viability, T/C [33]: 31.1% | viability, T/C [34]: 33.8% | viability, T/C [35]: 33.5% | viability, T/C [36]: 28.3%

Compound: O=C(NO)c1cnc(N2CCN(S(=O)(=O)c3ccc4ccccc4c3)CC2)nc1 + Cc1[nH]c2ccc(F)cc2c1-c1nc2c3cccnc3c3ncccc3c2[nH]1
IC50 (second compound 0.0316 µM): 153 nM | IC50 (second compound 0.1 µM): 211 nM | IC50 (second compound 0.316 µM): 113 nM | IC50 (second compound 1 µM): 60.2 nM | IC50 (second compound 3.16 µM): < 31.6 nM | IC50 (second compound 10 µM): < 31.6 nM | viability, T/C [1]: 99.5% | viability, T/C [2]: 71.4% | viability, T/C [3]: 13.9% | viability, T/C [4]: 0.16% | viability, T/C [5]: 0.07% | viability, T/C [6]: 0.9% | viability, T/C [7]: 117% | viability, T/C [8]: 102% | viability, T/C [9]: 22.1% | viability, T/C [10]: 0.09% | viability, T/C [11]: 0.03% | viability, T/C [12]: 0.45% | viability, T/C [13]: 66.5% | viability, T/C [14]: 55.2% | viability, T/C [15]: 6.53% | viability, T/C [16]: 0.09% | viability, T/C [17]: 0.04% | viability, T/C [18]: 0.16% | viability, T/C [19]: 60.6% | viability, T/C [20]: 41.6% | viability, T/C [21]: 10.5% | viability, T/C [22]: 0.06% | viability, T/C [23]: 0.09% | viability, T/C [24]: 0.07% | viability, T/C [25]: 42.7% | viability, T/C [26]: 19.4% | viability, T/C [27]: 3.52% | viability, T/C [28]: 0.44% | viability, T/C [29]: 0.18% | viability, T/C [30]: 0.72% | viability, T/C [31]: 42.9% | viability, T/C [32]: 35.3% | viability, T/C [33]: 4.65% | viability, T/C [34]: 0.13% | viability, T/C [35]: 0.22% | viability, T/C [36]: 0.17%

IC50 (second compound 0.0316 µM): 2110 nM | IC50 (second compound 0.1 µM): 1800 nM | IC50 (second compound 0.316 µM): 526 nM | IC50 (second compound 1 µM): < 31.6 nM | IC50 (second compound 3.16 µM): < 31.6 nM | IC50 (second compound 10 µM): < 31.6 nM
Compound: O=c1[nH]cc(F)c(=O)[nH]1 + Cc1cnc(CNC(=O)c2c(=O)c3ccc(N4CCCN(C)CC4)nc3n3c2sc2ccccc23)cn1
viability, T/C [1]: 101% | viability, T/C [2]: 96.3% | viability, T/C [3]: 103% | viability, T/C [4]: 64.6% | viability, T/C [5]: 44.3% | viability, T/C [6]: 24.6% | viability, T/C [7]: 68.2% | viability, T/C [8]: 69.3% | viability, T/C [9]: 60.9% | viability, T/C [10]: 79.8% | viability, T/C [11]: 31.3% | viability, T/C [12]: 24.7% | viability, T/C [13]: 51.8% | viability, T/C [14]: 50.6% | viability, T/C [15]: 71.5% | viability, T/C [16]: 40% | viability, T/C [17]: 34.7% | viability, T/C [18]: 23.3% | viability, T/C [19]: 35.2% | viability, T/C [20]: 25.6% | viability, T/C [21]: 31% | viability, T/C [22]: 32.7% | viability, T/C [23]: 23.6% | viability, T/C [24]: 22.5% | viability, T/C [25]: 31.2% | viability, T/C [26]: 29.8% | viability, T/C [27]: 25.6% | viability, T/C [28]: 49.5% | viability, T/C [29]: 22.6% | viability, T/C [30]: 15.1% | viability, T/C [31]: 21.4% | viability, T/C [32]: 28% | viability, T/C [33]: 14.6% | viability, T/C [34]: 26.5% | viability, T/C [35]: 25.7% | viability, T/C [36]: 16.4%
